The text below walks through data of EP1082127B1 (WARNER-LAMBERT COMPANY LLC, priority 1998, dated 1999).

Assay [1] addresses T1, ICE (Homo sapiens, UniProt P29466).
T1 sequence (P29466 120-297 limits assumed): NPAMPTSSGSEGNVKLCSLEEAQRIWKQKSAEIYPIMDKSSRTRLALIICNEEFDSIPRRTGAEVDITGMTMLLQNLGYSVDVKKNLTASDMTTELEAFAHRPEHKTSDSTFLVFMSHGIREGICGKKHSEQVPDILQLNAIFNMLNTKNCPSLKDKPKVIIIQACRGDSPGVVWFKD
T1 sequence (P29466 317-404 limits assumed): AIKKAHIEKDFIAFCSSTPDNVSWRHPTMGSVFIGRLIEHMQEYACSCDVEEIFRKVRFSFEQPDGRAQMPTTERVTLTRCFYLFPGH
As to the kind of experiment: ICE inhibition, Ki determination (fluorogenic substrate Ac-Tyr-Val-Ala-Asp-AMC). To be noted: 15 µM Ac-Tyr-Val-Ala-Asp-AMC, 0.5 nM enzyme, 30°C, reversible competitive model. The class given is biochemical. As for the experimental part: Serial dilutions of each compound of the invention are prepared using an initial 8-fold dilution of a DMSO stock into HGE (100 mM HEPES, 20% glycerol v/v, 0.5 mM EDTA), followed by seven serial 2-fold dilutions into HGE + 12.5% DMSO. Ten microliters of diluted stocks or of vehicle (HGE + 12.5% DMSO) are placed in triplicate onto a 96-well microtiter plate. Enzyme is diluted into assay buffer (HGE, 5 mM DTT, 15 µM Ac-Tyr-Val-Ala-Asp-AMC; 0.5 nM final enzyme concentration, pre-warmed to 30°C), and this reaction mixture is added to the plate at 90 µL/well. Substrate hydrolysis is monitored for 300 seconds at 30°C using 385 and 460 nm excitation and emission filters, respectively. Triplicate curves are averaged, and slopes are evaluated by linear regression. To evaluate Ki, plots of percent inhibition vs inhibitor concentration are fit by non-linear regression to a reversible, competitive model: [formula] where the competition factor is (1 + [S]/KM) = 2.

Assay [2] has as its target T1, ICE. Put plainly: ICE Colorimetric Dose-Response (IC50) Assay. The class given is biochemical. To be noted: 60 minutes preincubation, 50 µM Ac-Tyr-Val-Ala-Asp-pNA, 25°C. The method, then:
(§1) Diluted inhibitor stocks are prepared by two-fold serial dilution from a primary stock whose concentration is selected (based on screening results or on prior attempts at IC50 evaluation) to achieve approximately 95% inhibition in the most concentrated well. Aliquots of each dilution are transferred to a microtitre plate in triplicate.
(§2) ICE enzyme is diluted to approximately 24 nM in HGE buffer (100 mM Hepes pH 7.5, 0.5 mM EDTA, 20% glycerol, 0.1% Bovine Serum Albumin (BSA), and activated by adding dithiothreitol (DTT) to a final concentration of 5 mM. The activated enzyme is then aliquoted into wells containing inhibitor or vehicle, and the plate is preincubated for 60 minutes at ambient temperature. Substrate (Ac-Tyr-Val-Ala-Asp-pNA) is added to each well to a final concentration of 50 µM, and plates are placed in the microtitre plate-reader thermostated to 25°C. Beginning 5 minutes after addition of substrate, absorbance (405 nm) of wells is monitored for 1 hour, and activity is calculated as the mean rate of change in absorbance during this interval.

Assay [3] deals with IL-1β production in human peripheral blood mononuclear cells (PBMCs). Put plainly: PBMC Cellular Assay - IC50 Determinations (LPS-stimulated IL-1β production, ELISA). The class given is cell-based. To be noted: human PBMCs stimulated overnight with 10 ng/mL LPS, mature IL-1β by ELISA. The text has this: Further evidence that compounds of Formula I are inhibitors of ICE is provided by their ability to inhibit IL-1β production in human peripheral blood mononuclear cells (PBMCs) as described herein. PBMCs are isolated from heparinized blood by centrifugation over a ficoll cushion, then washed three times with phosphate-buffered saline. PBMCs are suspended in a medium containing RPMI 1640 with glutamine, penicillin, streptomycin, and 2% human AB serum, then plated at 10^6 cells per well in 96-well flat bottom plates. PBMCs are stimulated overnight with 10 ng/mL of lipopolysaccharide (LPS, E. coli strain 0111:B4; Calbiochem) in the presence or absence of a compound of Formula I. Medium is harvested, and the level of mature IL-1β was determined using an ELISA kit from R&D Systems. Cells were cultured for an additional 4 hours in the presence of 3-(4,5-dimethylthiazol-2-yl)-2,5-diphenyltetrazolium bromide (MTT) to determine viability.

The next assay addresses T2, Ich-2 enzyme (Homo sapiens, UniProt P49662).
T2 sequence (P49662 81-270 limits assumed): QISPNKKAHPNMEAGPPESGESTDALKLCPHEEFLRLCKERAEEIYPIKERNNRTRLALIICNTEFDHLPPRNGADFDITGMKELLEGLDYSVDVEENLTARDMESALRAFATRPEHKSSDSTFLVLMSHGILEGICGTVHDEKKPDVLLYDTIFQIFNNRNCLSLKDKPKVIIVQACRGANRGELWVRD
T2 sequence (P49662 290-377 limits assumed): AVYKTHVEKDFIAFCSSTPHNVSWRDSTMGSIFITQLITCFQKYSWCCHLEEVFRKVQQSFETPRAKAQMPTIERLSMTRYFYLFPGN
Put plainly: Ich-2 Colorimetric Dose-Response (IC50) Assay. The class given is biochemical. To be noted: enzyme 64 nM, 60 µM Ac-Leu-Glu-Val-Asp-pNA; read-out: ICH2 IC50 (Caspase 4). As for the experimental part:
as §1, §2
Inhibition of Ich-2 enzyme is assayed as described above for ICE, except that enzyme is used at 64 nM, and 60 µM of the Ich-2-specific substrate Ac-Leu-Glu-Val-Asp-pNA is used instead of the ICE substrate Ac-Tyr-Val-Ala-Asp-pNA.

Take `CC(C)C(CC(=O)NCCc1ccncc1)C(=O)NC(CC(=O)O)C(=O)CNS(=O)(=O)CC12CCC(CC1=O)C2(C)C` (centres unmarked) [Example 32, 5-(7,7-Dimethyl-2-oxo-bicyclo[2.2.1]hept-1-ylmethanesulfonylamino)-3-{3-methyl-2-[(2-pyridin-4-yl-ethylcarbamoyl)-methyl]-butyrylamino}-4-oxo-pentanoic acid]: the Ki (commonly a measure of affinity in units of concentration, obtained from inhibition or displacement) on ICE [1] worked out at 26 nM. Moreover, the values for the IC50 (on ICE [2]; in assay [3]; on Ich-2 enzyme) were 458 nM, 3300 nM and 14100 nM, respectively.
The corresponding values for `CC(C)C(CC(=O)NCCn1cnc2ccccc21)C(=O)NC(CC(=O)O)C(=O)CNS(=O)(=O)CC12CCC(CC1=O)C2(C)C` (centres unmarked) [Example 30, 3-{2-[(2-Benzoimidazol-1-yl-ethylcarbamoyl)-methyl]-3-methyl-butyrylamino}-5-(7,7-dimethyl-2-oxo-bicyclo[2.2.1]hept-1-ylmethanesulfonylamino)-4-oxo-pentanoic acid] are 1.1 nM, 5.2 nM, 410 nM and 3140 nM.
In the case of `CC(C)C(CC(=O)NCCn1nnc2ccccc21)C(=O)NC(C=O)CC(=O)O` (centres unmarked) [Example 58, 3-{2-[(2-Benzotriazol-1-yl-ethylcarbamoyl)-methyl]-3-methyl-butyrylamino}-4-oxo-butyric acid], affinity on ICE [1] was put at a Ki of 31.8 nM. Besides, the IC50 (in general, the point on the concentration scale where inhibition reaches its midpoint) came out at 336 nM against ICE [2], 7750 nM in assay [3] and 10600 nM at Ich-2 enzyme.
`CC(C)C(CC(=O)NCCc1cn(C)c2ccccc12)C(=O)NC(CC(=O)O)C(=O)CNS(=O)(=O)CC12CCC(CC1=O)C2(C)C` (centres unmarked) [Example 31, 5-(7,7-Dimethyl-2-oxo-bicyclo[2.2.1]hept-1-ylmethanesulfonylamino)-3-(3-methyl-2-{[2-(1-methyl-1H-indol-3-yl)-ethylcarbamoyl]-methyl}-butyrylamino)-4-oxo-pentanoic acid]: the Ki at ICE [1] was 0.4 nM. In addition, the IC50 was 5.9 nM against ICE [2], 240 nM in assay [3] and 1240 nM on Ich-2 enzyme.
`CC(C)C(CC(=O)NCCc1nnn[nH]1)C(=O)NC(CC(=O)O)C(=O)CNS(=O)(=O)CC12CCC(CC1=O)C2(C)C` (centres unmarked) [Example 34, 5-(7,7-Dimethyl-2-oxo-bicyclo[2.2.1]hept-1-ylmethanesulfonylamino)-3-(3-methyl-2-{[2-(1H-tetrazol-5-yl)-ethylcarbamoyl]-methyl}-butyrylamino)-4-oxo-pentanoic acid] yielded a Ki at ICE [1] of 16.6 nM. Besides, the figures for the IC50 (at ICE [2]; in assay [3]; at Ich-2 enzyme) were 115 nM, 2600 nM and 1100 nM, respectively.
`CC(C)C(CC(=O)N(C)CCc1cn(C)c2ccccc12)C(=O)NC(C=O)CC(=O)O` (centres unmarked) [Example 21, 3-[3-Methyl-2-({methyl-[2-(1-methyl-1H-indol-3-yl)-ethyl]-carbamoyl}-methyl)-butyrylamino]-4-oxo-butyric acid] returned a Ki at ICE [1] of 28 nM. The IC50 at ICE [2] came out at 130 nM; in assay [3] it was 7500 nM; at Ich-2 enzyme, 209000 nM.
In the same order, the values of `CC(C)C(CC(=O)NCCc1cn(C)c2ccc(F)cc12)C(=O)NC(C=O)CC(=O)O` (centres unmarked) [Example 55, 3-(2-{[2-(5-Fluoro-1-methyl-1H-indol-3-yl)-ethylcarbamoyl]-methyl}-3-methyl-butyrylamino)-4-oxo-butyric acid] are 7.9 nM, 37 nM, 5300 nM and 11500 nM.
On ICE [1], `CCOC1OC(=O)CC1NC(=O)C(CC(=O)NCCc1c[nH]c2c(C)cccc12)C(C)C` (centres unmarked) [Example 45, N^1-(2-Ethoxy-5-oxo-tetrahydro-furan-3-yl)-N^4-[2-(7-methyl-1H-indol-3-yl)-ethyl]-2-isopropyl-succinamide] came in with a Ki of 37 nM. Besides, the IC50 stood at 750 nM on ICE [2], 2600 nM in assay [3] and 174000 nM at Ich-2 enzyme.
On ICE [1], `CC(C)C(CC(=O)N(C)CCn1cnc2ccccc21)C(=O)NC(C=O)CC(=O)O` (centres unmarked) [Example 57, 3-(2-{[(2-Benzoimidazol-1-yl-ethyl)-methyl-carbamoyl]-methyl}-3-methyl-butyrylamino)-4-oxo-butyric acid] registered a Ki of 22.9 nM. Moreover, the IC50 on ICE [2] was found to be 227 nM; in assay [3], 3750 nM; on Ich-2 enzyme, 38000 nM.
In the same order, the values of `Cc1cccc2c(CCNC(=O)CC(C(=O)NC(CC(=O)O)C(=O)CNS(=O)(=O)CC34CCC(CC3=O)C4(C)C)C(C)C)c[nH]c12` (centres unmarked) [Example 19, 5-(7,7-Dimethyl-2-oxo-bicyclo[2.2.1]hept-1-ylmethanesulfonylamino)-3-(3-methyl-2-{(2-(7-methyl-1H-indol-3-yl)-ethylcarbamoyl]-methyl}-butyrylamino)-4-oxo-pentanoic acid] are 0.9 nM, 8.5 nM, 400 nM and 2380 nM.
Take `CC(C)C(CC(=O)NCCCc1ccccc1)C(=O)NC(CC(=O)O)C(=O)COc1ccc2oc(=O)ccc2c1` (centres unmarked) [Example 13, 3-{3-Methyl-2-[(3-phenyl-propylcarbamoyl)-methyl]-butyrylamino}-4-oxo-5-(2-oxo-2H-chromen-6-yloxy)-pentanoic acid]: at ICE [1], the affinity, expressed as Ki, was 6.7 nM. For the same molecule, the IC50 came out at 52 nM against ICE [2], 2350 nM in assay [3] and 250 nM at Ich-2 enzyme.
Molecule `CC(C)C(CC(=O)NCCCc1cccc2ccccc12)C(=O)NC(CC(=O)O)C(=O)CNS(=O)(=O)CC12CCC(CC1=O)C2(C)C` (centres unmarked) [Example 28, 5-(7,7-Dimethyl-2-oxo-bicyclo[2.2.1]hept-1-ylmethanesulfonylamino)-3-{3-methyl-2-[(3-naphthalen-1-yl-propylcarbamoyl)-methyl]-butyrylamino}-4-oxo-pentanoic acid] showed an inhibition constant (Ki) on ICE [1] of 6.1 nM. For the same molecule, the IC50 was determined as 254 nM at ICE [2], 550 nM in assay [3] and 5580 nM on Ich-2 enzyme.
The corresponding values for `CC(C)C(CC(=O)NCCc1ccccc1)C(=O)NC(CC(=O)O)C(=O)CSCCCc1ccccc1` (centres unmarked) [Example 10, 3-[3-Methyl-2-(phenethylcarbamoyl-methyl)-butyrylamino]-4-oxo-5-(3-phenyl-propylsulfanyl)-pentanoic acid] are 539 nM, 3270 nM, 21500 nM and 25700 nM.
As to `CC(C)C(CC(=O)NCCn1ncc2ccccc21)C(=O)NC(C=O)CC(=O)O` (centres unmarked) [Example 59, 3-{2-[(2-Indazol-1-yl-ethylcarbamoyl)-methyl]-3-methyl-butyrylamino}-4-oxo-butyric acid], affinity on ICE [1] was put at a Ki of 33.2 nM. For the same molecule, the IC50 is 56.6 nM at ICE [2], 3750 nM in assay [3] and 10400 nM on Ich-2 enzyme.
